In US20240368104A1, “Novel Dialkoxynaphtho[2,3-C]Furan-1(3H)-One Derivatives and Pharmaceutical Composition For Preventing or Treating Respiratory Disease or SARS-COV-2 Infection Disease, Comprising Same” (priority 2021, published 2024):
Where a name gives a salt, the structure may show the parent alone. Read-outs that look alike come from different tables or passages of the source.

How the values were obtained:
SARS-COV-2 = experiment: microbe, parasite or virus in culture; format: cell-based; parameters: SI (Selectivity Index, CC50/IC50): unit not given here; conditions: for SI (Selectivity Index, CC50/IC50): SARS-COV-2, values >50 assumed to be 50; for IC50: read-out: SARS-COV-2 inhibition (IC50)
in vitro = conditions: African green monkey
[1] = Severe acute respiratory syndrome coronavirus 2, Vero cells, 24 hours infection
[2] = Severe acute respiratory syndrome coronavirus 2, Vero, 24 h

COc1cc2cc3c(c(N4CC(C)CC(C)C4)c2cc1OC)C(=O)OC3 (stereo not drawn) [Example 4, 9-(3,5-dimethylpiperidin-1-yl)-6,7-dimethoxynaphtho[2,3-c]furan-1(3H)-one]
SI (Selectivity Index, CC50/IC50) (SARS-COV-2): 4.45 | IC50 (SARS-COV-2; [1]): 11.2 µM | CC50 (in vitro): > 50 µM

COc1cc2cc3c(c(-c4cncc(OCCN(C)C)c4)c2cc1OC)C(=O)OC3.Cl [Example 187, 9-(5-(2-(dimethylamino)ethoxy)pyridin-3-yl)-6,7-dimethoxynaphtho[2,3-c]furan-1(3H)-one]
SI (Selectivity Index, CC50/IC50) (SARS-COV-2): 1.0 | IC50 (SARS-COV-2; [2]): > 50 µM | CC50 (in vitro): > 50 µM

COc1cc2cc3c(c(-c4ccc(N(C)C)cc4)c2cc1OC)C(=O)OC3.Cl [Example 247, 9-(4-(dimethylamino)phenyl)-6,7-dimethoxynaphtho[2,3-c]furan-1(3H)-one]
SI (Selectivity Index, CC50/IC50) (SARS-COV-2): 344.5 | IC50 (SARS-COV-2; [2]): 0.15 µM | CC50 (in vitro): > 50 µM

COc1cc2cc3c(c(-c4ccc(-c5c(OC)ncnc5OC)cc4)c2cc1OC)C(=O)OC3 [Example 157, 9-(4-(4,6-dimethoxypyrimidin-5-yl)phenyl)-6,7-dimethoxynaphtho[2,3-c]furan-1(3H)-one]
SI (Selectivity Index, CC50/IC50) (SARS-COV-2): 1.0 | IC50 (SARS-COV-2; [1]): > 50 µM | CC50 (in vitro): > 50 µM

CC[C@H](C)[C@H](N)C(=O)Oc1cc2c(cc1-c1c3c(cc4cc(OC)c(OC)cc14)COC3=O)OCO2 [Example 270, 6-(6,7-dimethoxy-3-oxo-1,3-dihydronaphtho[2,3-c]furan-4-yl)benzo[d][1,3]dioxol-5-yl L-isoleucinate]
SI (Selectivity Index, CC50/IC50) (SARS-COV-2): 122.64 | IC50 (SARS-COV-2; [2]): 0.41 µM | CC50 (in vitro): > 50 µM

COc1cc2cc3c(c(-c4cnc(N(C)CCN5CCOCC5)nc4)c2cc1OC)C(=O)OC3 [Example 111, 6,7-dimethoxy-9-(2-(methyl(2-morpholinoethyl)amino)pyrimidin-5-yl)naphtho[2,3-c]furan-1(3H)-one hydrochloride]
SI (Selectivity Index, CC50/IC50) (SARS-COV-2): 2.37 | IC50 (SARS-COV-2; [2]): 21.1 µM | CC50 (in vitro): > 50 µM

COC(=O)CN(C)c1ncc(-c2c3c(cc4cc(OC)c(OC)cc24)COC3=O)cn1.Cl [Example 90, methyl N-(5-(6,7-dimethoxy-3-oxo-1,3-dihydronaphtho[2,3-c]furan-4-yl)pyrimidin-2-yl)-N-methyl glycinate hydrochloride]
SI (Selectivity Index, CC50/IC50) (SARS-COV-2): 16.96 | IC50 (SARS-COV-2; [2]): 2.95 µM | CC50 (in vitro): > 50 µM

COc1cc2cc3c(c(-c4ccc(N(C)C(C)=O)nc4)c2cc1OC)C(=O)OC3 [Example 230, N-(5-(6,7-dimethoxy-3-oxo-1,3-dihydronaphtho[2,3-c]furan-4-yl)pyridin-2-yl)-N-methylacetamide]
SI (Selectivity Index, CC50/IC50) (SARS-COV-2): 2.45 | IC50 (SARS-COV-2; [1]): 20.4 µM | CC50 (in vitro): > 50 µM

COc1cc2cc3c(c(N4CCN(CCO)CC4)c2cc1OC)C(=O)OC3 [Example 144, 9-(4-(2-hydroxyethyl)piperazin-1-yl)-6,7-dimethoxynaphtho[2,3-c]furan-1(3H)-one]
SI (Selectivity Index, CC50/IC50) (SARS-COV-2): 1.0 | IC50 (SARS-COV-2; [1]): > 50 µM | CC50 (in vitro): > 50 µM

COc1cc2cc3c(c(-c4ccc(N(C)c5nc(SC)n(C)n5)nc4)c2cc1OC)C(=O)OC3.Cl [Example 215, 6,7-dimethoxy-9-(6-(methyl(1-methyl-5-(methylthio)-1H-1,2,4-triazol-3-yl)amino)pyridin-3-yl)naphtho[2,3-c]furan-1(3H)-one]
SI (Selectivity Index, CC50/IC50) (SARS-COV-2): 2.55 | IC50 (SARS-COV-2; [2]): 19.6 µM | CC50 (in vitro): > 50 µM

COc1cc2cc3c(c(-c4cnc(N(C)CCCN5CCOCC5)nc4)c2cc1OC)C(=O)OC3 [Example 112, 6,7-dimethoxy-9-(2-(methyl(3-morpholinopropyl)amino)pyrimidin-5-yl)naphtho[2,3-c]furan-1(3H)-one dihydrochloride]
SI (Selectivity Index, CC50/IC50) (SARS-COV-2): 6.70 | IC50 (SARS-COV-2; [2]): 7.46 µM | CC50 (in vitro): > 50 µM

COc1cc2cc3c(c(-c4ccc5c(c4)N(C)CCC5)c2cc1OC)C(=O)OC3 [Example 170, 6,7-dimethoxy-9-(1-methyl-1,2,3,4-tetrahydroquinolin-7-yl)naphtho[2,3-c]furan-1(3H)-one]
SI (Selectivity Index, CC50/IC50) (SARS-COV-2): 24.25 | IC50 (SARS-COV-2; [1]): 2.06 µM | CC50 (in vitro): > 50 µM

COc1cc2cc3c(c(-c4cnc(OC)c(-c5nc6ccccc6[nH]5)c4)c2cc1OC)C(=O)OC3 [Example 204, 9-(5-(1H-benzo[d]imidazol-2-yl)-6-methoxypyridin-3-yl)-6,7-dimethoxynaphtho[2,3-c]furan-1(3H)-one]
SI (Selectivity Index, CC50/IC50) (SARS-COV-2): 0.93 | IC50 (SARS-COV-2; [2]): 25.9 µM | CC50 (in vitro): 24.2 µM

COc1cc2cc3c(c(-c4ccc(N5CCCC(C)C5)nc4)c2cc1OC)C(=O)OC3 (stereo not drawn) [Example 126, 6,7-dimethoxy-9-(6-(3-methylpiperidin-1-yl)pyridin-3-yl)naphtho[2,3-c]furan-1(3H)-one]
SI (Selectivity Index, CC50/IC50) (SARS-COV-2): 122.97 | IC50 (SARS-COV-2; [1]): 0.41 µM | CC50 (in vitro): > 50 µM

COc1cc2cc3c(c(-c4ccc5c(CN6CCOCC6)c[nH]c5c4)c2cc1OC)C(=O)OC3.Cl [Example 203, 6,7-dimethoxy-9-(3-(morpholinomethyl)-1H-indol-6-yl)naphtho[2,3-c]furan-1(3H)-one]
SI (Selectivity Index, CC50/IC50) (SARS-COV-2): 8.39 | IC50 (SARS-COV-2; [2]): 3.54 µM | CC50 (in vitro): 29.7 µM

CCN(C)c1ncc(-c2c3c(cc4cc(OC)c(OC)cc24)COC3=O)cn1 [Example 106, 9-(2-(ethyl(methyl)amino)pyrimidin-5-yl)-6,7-dimethoxynaphtho[2,3-c]furan-1(3H)-one hydrochloride]
SI (Selectivity Index, CC50/IC50) (SARS-COV-2): 297.58 | IC50 (SARS-COV-2; [2]): 0.17 µM | CC50 (in vitro): > 50 µM

CCN(CC)c1ccc(-c2c3c(cc4cc(OC)c(OC)cc24)COC3=O)cc1 [Example 249, 9-(4-(diethylamino)phenyl)-6,7-dimethoxynaphtho[2,3-c]furan-1(3H)-one]
SI (Selectivity Index, CC50/IC50) (SARS-COV-2): 100.23 | IC50 (SARS-COV-2; [1]): 0.5 µM | CC50 (in vitro): > 50 µM

COc1cc2cc3c(c(-c4cnc(N(C)C5CCCCC5)nc4)c2cc1OC)C(=O)OC3.Cl [Example 79, 9-(2-(cyclohexyl(methyl)amino)pyrimidin-5-yl)-6,7-dimethoxynaphtho[2,3-c]furan-1(3H)-one hydrochloride]
SI (Selectivity Index, CC50/IC50) (SARS-COV-2): 46.19 | IC50 (SARS-COV-2; [2]): 1.08 µM | CC50 (in vitro): > 50 µM

CCN(c1ccc(-c2c3c(cc4cc(OC)c(OC)cc24)COC3=O)cn1)C1CCCC1 [Example 191, 9-(6-(cyclopentyl(ethyl)amino)pyridin-3-yl)-6,7-dimethoxynaphtho[2,3-c]furan-1(3H)-one]
SI (Selectivity Index, CC50/IC50) (SARS-COV-2): 35.47 | IC50 (SARS-COV-2; [1]): 1.41 µM | CC50 (in vitro): > 50 µM

COc1cc2cc3c(c(-c4ccc(N(C)c5nc6ccccc6s5)nc4)c2cc1OC)C(=O)OC3.Cl [Example 225, 9-(6-(benzo[d]thiazol-2-yl(methyl)amino)pyridin-3-yl)-6,7-dimethoxynaphtho[2,3-c]furan-1(3H)-one]
SI (Selectivity Index, CC50/IC50) (SARS-COV-2): 0.65 | IC50 (SARS-COV-2; [2]): > 50 µM | CC50 (in vitro): 32.4 µM

COc1cc2cc3c(c(-c4cc5c(cc4OP(=O)(NCCN4CCOCC4)Oc4ccccc4)OCO5)c2cc1OC)C(=O)OC3 (stereo not drawn) [Example 279, 6-(6,7-dimethoxy-3-oxo-1,3-dihydronaphtho[2,3-c]furan-4-yl)benzo[d][1,3]dioxol-5-yl phenyl (2-morpholinoethyl)phosphoramidate]
SI (Selectivity Index, CC50/IC50) (SARS-COV-2): 8.21 | IC50 (SARS-COV-2; [2]): 6.09 µM | CC50 (in vitro): > 50 µM

COc1cc2cc3c(c(-c4cnc(N(C)CCC5=CCCCC5)nc4)c2cc1OC)C(=O)OC3.Cl [Example 101, 9-(2-((2-(cyclohex-1-en-1-yl)ethyl)(methyl)amino)pyrimidin-5-yl)-6,7-dimethoxynaphtho[2,3-c]furan-1(3H)-one hydrochloride]
SI (Selectivity Index, CC50/IC50) (SARS-COV-2): 13.00 | IC50 (SARS-COV-2; [2]): 3.85 µM | CC50 (in vitro): > 50 µM

COc1cc2cc3c(c(-c4cnc(OCCN5C[C@@H](C)O[C@@H](C)C5)nc4)c2cc1OC)C(=O)OC3 [Example 54, 9-(2-(2-((2S,6R)-2,6-dimethylmorpholino)ethoxy)pyrimidin-5-yl)-6,7-dimethoxynaphtho[2,3-c]furan-1(3H)-one]
SI (Selectivity Index, CC50/IC50) (SARS-COV-2): 1.00 | IC50 (SARS-COV-2; [1]): > 50 µM | CC50 (in vitro): > 50 µM

COc1cc2cc3c(c(-c4ccc(F)nc4)c2cc1OC)C(=O)OC3 [Example 35, 9-(6-fluoropyridin-3-yl)-6,7-dimethoxynaphtho[2,3-c]furan-1(3H)-one]
SI (Selectivity Index, CC50/IC50) (SARS-COV-2): 1.00 | IC50 (SARS-COV-2; [1]): > 50 µM | CC50 (in vitro): > 50 µM

COc1cc2cc3c(c(-c4ccc(C(F)(F)F)c5cccnc45)c2cc1OC)C(=O)OC3 [Example 119, 6,7-dimethoxy-9-(5-(trifluoromethyl)quinolin-8-yl)naphtho[2,3-c]furan-1(3H)-one]
SI (Selectivity Index, CC50/IC50) (SARS-COV-2): 11.45 | IC50 (SARS-COV-2; [1]): 4.36 µM | CC50 (in vitro): > 50 µM

COc1cc2cc3c(c(-c4ccc5cc(C(F)(F)F)cc(O)c5c4)c2cc1OC)C(=O)OC3 [Example 153, 9-(8-hydroxy-6-(trifluoromethyl)naphthalen-2-yl)-6,7-dimethoxynaphtho[2,3-c]furan-1(3H)-one]
SI (Selectivity Index, CC50/IC50) (SARS-COV-2): 1.0 | IC50 (SARS-COV-2; [1]): > 50 µM | CC50 (in vitro): > 50 µM

COc1cc2cc3c(c(N4CCc5sccc5C4)c2cc1OC)C(=O)OC3 [Example 3, 9-(6,7-dihydrothieno[3,2-c]pyridin-5 (4H)-yl)-6,7-dimethoxynaphtho[2,3-c]furan-1(3H)-one]
SI (Selectivity Index, CC50/IC50) (SARS-COV-2): 8.48 | IC50 (SARS-COV-2; [1]): 5.89 µM | CC50 (in vitro): > 50 µM

COc1cc2cc3c(c(-c4cc(C)nc5c(OC)cccc45)c2cc1OC)C(=O)OC3 [Example 149, 6,7-dimethoxy-9-(8-methoxy-2-methylquinolin-4-yl)naphtho[2,3-c]furan-1(3H)-one]
SI (Selectivity Index, CC50/IC50) (SARS-COV-2): 1.0 | IC50 (SARS-COV-2; [1]): > 50 µM | CC50 (in vitro): > 50 µM

COc1cc2cc3c(c(-c4cnc(N5CCC(N(C)C)CC5)nc4)c2cc1OC)C(=O)OC3 [Example 205, 9-(2-(4-(dimethylamino)piperidin-1-yl)pyrimidin-5-yl)-6,7-dimethoxynaphtho[2,3-c]furan-1(3H)-one]
SI (Selectivity Index, CC50/IC50) (SARS-COV-2): 7.75 | IC50 (SARS-COV-2; [1]): 6.46 µM | CC50 (in vitro): > 50 µM
